Values quoted from earlier work as cited in patent publication US12551473B2, “Compositions and methods for increasing athletic performance” (VDF Futureceuticals, Inc., priority 2015, dated 2026).

What was measured:
[1] = test system: skin blood flow; details: during cycling exercise at 55% VO2max
[2] = test system: systolic blood pressure; details: 5.5 mmol/day, acute (1 day) and chronic (6 day), during cycling in healthy young men

Row | SMILES | skin blood flow [1] | reduced systolic blood pressure (mean) [2] [mmHg]
1 | CN(C)C(=O)Oc1ccc[n+](C)c1 [pyridostigmine] | reduces | –
2 | O=[N+]([O-])O [nitrate] | – | 6
